This is an account of results in ChEMBL document CHEMBL1130971, “Endothelin antagonists: evaluation of 2,1,3-benzothiadiazole as a methylendioxyphenyl bioisoster” (Bioorg Med Chem Lett, 1998).

Structures are written as SMILES.

As a reminder, the IC50 is the concentration that inhibits the measured activity by half. Broadly, the Kb is the affinity of an antagonist, worked out from how it opposes an agonist. Higher therefore signals a less potent antagonist.

The target in experiment [1] is T1, Endothelin-1 receptor (Rattus norvegicus, UniProt P26684).
T1 sequence (P26684 whole entry): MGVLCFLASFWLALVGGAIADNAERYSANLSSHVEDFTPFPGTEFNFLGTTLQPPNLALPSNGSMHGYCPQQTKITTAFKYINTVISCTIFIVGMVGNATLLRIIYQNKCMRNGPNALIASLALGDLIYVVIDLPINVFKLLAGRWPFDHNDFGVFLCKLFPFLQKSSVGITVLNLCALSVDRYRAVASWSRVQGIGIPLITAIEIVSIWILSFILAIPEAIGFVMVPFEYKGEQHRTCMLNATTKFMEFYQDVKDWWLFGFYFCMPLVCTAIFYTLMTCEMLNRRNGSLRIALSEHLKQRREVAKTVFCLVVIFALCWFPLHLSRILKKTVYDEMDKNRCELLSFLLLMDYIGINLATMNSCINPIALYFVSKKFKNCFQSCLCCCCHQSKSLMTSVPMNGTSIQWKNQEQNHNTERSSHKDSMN
The experiment can be described thus: Inhibition of [125I]ET1 binding to rat aorta membrane Endothelin A receptor.

In experiment [2] the target is Endothelin-1 receptor (Rattus norvegicus). The experiment can be described thus: pA2 value towards endothelin receptor A was determined as functional ETA antagonism.

In the case of `CCCOc1ccc2c(c1)c(-c1ccc3c(c1)OCO3)c(C(=O)O)n2Cc1ccc2c(c1)OCO2`, the IC50 in experiment [1] was 250 nM.
The compound `COc1cc2c(-c3ccc4c(c3)OCO4)c(C(=O)O)n(Cc3ccc4c(c3)OCO4)c2cc1OC` displayed an IC50 in experiment [1] of 150 nM.
The compound `CN(C)c1cccc2c(S(=O)(=O)Nc3ccc4c(c3)OCO4)cccc12` returned an IC50 in experiment [1] of 370 nM.
`CCCOc1ccc2c(c1)c(-c1ccc(OC)cc1)c(C(=O)O)n2Cc1cc2nsnc2cc1C` gave an IC50 in experiment [1] of 160 nM.
In experiment [2], `COc1ccc(C(=O)/C(Cc2cc(OC)c(OC)c(OC)c2)=C(\C(=O)O)c2ccc3nsnc3c2)cc1` had a Kb of 3.16 nM.
For `COc1ccc(-c2c(C(=O)O)c(=O)n(Cc3ccc4nsnc4c3)c3c2oc2ccccc23)cc1`, the IC50 in experiment [1] stood at 390 nM.
Same read-out and setting: as for `COc1cc2c(-c3ccc4c(c3)OCO4)c(C(=O)O)n(Cc3ccc4nsnc4c3)c2cc1OC`, the figure is 33 nM; as for `CCCOc1ccc2c(c1)c(-c1ccc(OC)cc1)c(C(=O)O)n2Cc1ccc2nsnc2c1`, 210 nM; as for `CCCOc1ccc2c(c1)c(-c1ccc3c(c1)OCO3)c(C(=O)O)n2Cc1ccc2nsnc2c1`, 97 nM.
Same read-out and setting: as for `CCCOc1ccc2c(c1)c(-c1ccc3c(c1)OCO3)c(C(=O)O)n2Cc1ccc2nonc2c1`, the figure is 2500 nM; as for `COc1ccc(C2(O)OC(=O)C(c3ccc4nsnc4c3)=C2Cc2cc(OC)c(OC)c(OC)c2)cc1` (stereo not drawn), 0.3 nM; as for `COc1ccc(-c2c(C(=O)O)c(=O)n(Cc3ccc4c(c3)OCO4)c3c2oc2ccccc23)cc1`, 1300 nM.
In experiment [2], `COc1ccc(C(=O)/C(Cc2cc(OC)c(OC)c(OC)c2)=C(\C(=O)O)c2ccc3c(c2)OCO3)cc1` [PD-156707 SODIUM] showed a Kb of 25.1 nM.
